Results: patent US10626112B2, “Heterocyclic sulfonamide derivative and medicine comprising same” (EA PHARMA CO., LTD., priority 2014, dated 2020)

Target: human TRPA1 (Homo sapiens (Human), UniProt O75762)
Assay: Measurement of TRPA1 antagonist activity (1): intracellular calcium increase
Format: cell-based
Details: 293T cells transfected with human TRPA1 expression plasmid; allylisothiocyanate 20 μM stimulation; intracellular calcium fluorescence; read-out: hTRPA1 IC50
Method in brief: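 Calcium-flux readout of TRPA1 block: compound given 10 min before 20 μM (final) allylisothiocyanate, fluorescence tracked 5 min. Cells were 293T transiently expressing human TRPA1, dye-loaded 1 hr in HBSS, 20 mM HEPES, pH 7.2. Inhibition scaled between agonist-only and buffer-only responses; IC50 by sigmoid fitting.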

human TRPA1, sequence (O75762 whole entry): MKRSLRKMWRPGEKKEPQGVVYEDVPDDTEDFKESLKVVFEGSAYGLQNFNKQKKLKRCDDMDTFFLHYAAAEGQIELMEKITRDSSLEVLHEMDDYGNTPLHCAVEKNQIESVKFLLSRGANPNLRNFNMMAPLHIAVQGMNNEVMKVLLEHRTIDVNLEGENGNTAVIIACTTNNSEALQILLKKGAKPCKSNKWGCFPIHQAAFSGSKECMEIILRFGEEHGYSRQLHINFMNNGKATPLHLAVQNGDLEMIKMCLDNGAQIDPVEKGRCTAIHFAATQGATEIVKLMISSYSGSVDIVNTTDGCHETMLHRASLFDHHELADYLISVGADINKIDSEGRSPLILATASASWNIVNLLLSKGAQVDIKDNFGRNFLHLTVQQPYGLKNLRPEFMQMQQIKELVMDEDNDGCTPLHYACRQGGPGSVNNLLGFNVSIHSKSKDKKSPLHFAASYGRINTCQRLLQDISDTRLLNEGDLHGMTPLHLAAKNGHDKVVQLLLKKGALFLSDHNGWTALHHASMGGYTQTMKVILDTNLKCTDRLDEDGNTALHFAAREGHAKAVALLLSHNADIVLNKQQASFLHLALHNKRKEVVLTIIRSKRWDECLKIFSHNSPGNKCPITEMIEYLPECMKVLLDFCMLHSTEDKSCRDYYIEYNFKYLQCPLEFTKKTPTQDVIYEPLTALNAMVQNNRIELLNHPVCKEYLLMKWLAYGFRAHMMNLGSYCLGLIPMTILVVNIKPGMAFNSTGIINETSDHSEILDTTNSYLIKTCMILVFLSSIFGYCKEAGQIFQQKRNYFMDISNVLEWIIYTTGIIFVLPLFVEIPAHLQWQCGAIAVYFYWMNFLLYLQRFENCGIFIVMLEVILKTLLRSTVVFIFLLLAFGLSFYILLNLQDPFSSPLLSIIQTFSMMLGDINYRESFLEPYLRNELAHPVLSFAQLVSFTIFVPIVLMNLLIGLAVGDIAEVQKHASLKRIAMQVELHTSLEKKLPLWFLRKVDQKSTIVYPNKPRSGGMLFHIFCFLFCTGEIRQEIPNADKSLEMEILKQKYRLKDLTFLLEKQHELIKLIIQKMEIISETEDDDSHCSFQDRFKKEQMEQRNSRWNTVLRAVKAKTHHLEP

Structure (SMILES) | IC50 [nM]
C[C@H](NS(=O)(=O)c1cc2cnccc2o1)C(=O)NCc1cc(-c2ccc(C(F)(F)F)cn2)ccn1 [Example 304, (2S)-2-(furo[3,2-c]pyridin-2-ylsulfonylamino)-N-[[4-[5-(trifluoromethyl)-2-pyridyl]-2-pyridyl]methyl]propanamide] | 350
O=C(NCc1cc(-c2cnc(C(F)(F)F)cn2)ccn1)[C@@H]1CCCN1S(=O)(=O)c1cc2ccccc2o1 [Example 201, (2S)-1-(benzofuran-2-ylsulfonyl)-N-[[4-[5-(trifluoromethyl)pyrazin-2-yl]-2-pyridyl]methyl]pyrrolidine-2-carboxamide] | 8.6
CC[C@H](NS(=O)(=O)c1cc2cc(F)ccc2o1)C(=O)NCc1cc(-c2ccc(C(F)(F)F)cn2)ccn1 [Example 335, (2S)-2-[(5-fluorobenzofuran-2-yl)sulfonylamino]-N-[[4-[5-(trifluoromethyl)-2-pyridyl]-2-pyridyl]methyl]butaneamide] | 54
O=C(NCc1cc(-c2ccc(C(F)(F)F)cn2)ccn1)[C@@H]1CCCN1S(=O)(=O)c1cc2cc(F)ccc2o1 [Example 223, (2S)-1-(5-fluorobenzofuran-2-yl)sulfonyl-N-[[4-[5-(trifluoromethyl)-2-pyridyl]-2-pyridyl]methyl]pyrrolidine-2-carboxamide] | 0.88
O=C(NCc1cccc(OCc2ccnc(C(F)(F)F)c2)c1)[C@@H]1CCCN1S(=O)(=O)c1cc2cc(F)ccc2o1 [Example 16, (2S)-1-(5-fluorobenzofuran-2-yl)sulfonyl-N-[[3-[[2-(trifluoromethyl)-4-pyridyl]methoxy]phenyl]-methyl]pyrrolidine-2-carboxamide] | 2.8
O=C(NCc1cc(C(F)(F)F)ccc1Cl)[C@@H]1CCCN1S(=O)(=O)c1cc2ccccc2o1 [Example 67, (2S)-1-(benzofuran-2-ylsulfonyl)-N-[[2-chloro-5-(trifluoromethyl)phenyl]methyl]-pyrrolidine-2-carboxamide] | 9.7
O=C(NCc1cncc(-c2ccc(C(F)(F)F)cc2)c1)[C@@H]1CCCN1S(=O)(=O)c1cc2cc(F)ccc2o1 [Example 139, (2S)-1-(5-fluorobenzofuran-2-yl)sulfonyl-N-[[5-[4-(trifluoromethyl)phenyl]-3-pyridyl]methyl]pyrrolidine-2-carboxamide] | 3
O=C(NCc1cc(-c2cnc(C3CC3)nc2)ccc1F)[C@@H]1CCCN1S(=O)(=O)c1cc2ccccc2o1 [Example 173, (2S)-1-(benzofuran-2-ylsulfonyl)-N-[[5-(2-cyclopropylpyrimidin-5-yl)-2-fluoro-phenyl]methyl]pyrrolidine-2-carboxamide] | 17
O=C(NCc1cccc(OCc2cccnc2)c1)[C@@H]1CCCN1S(=O)(=O)c1cc2ccccc2o1 [Example 3, (2S)-1-(benzofuran-2-ylsulfonyl)-N-[[3-(3-pyridylmethoxy)phenyl]methyl]pyrrolidine-2-carboxamide] | 72
N#Cc1ccc(-c2cc(CNC(=O)[C@@H]3CCCN3S(=O)(=O)c3cc4ccccc4o3)ccn2)c(OCc2ccccc2)c1 [Example 126, (2S)-1-(benzofuran-2-ylsulfonyl)-N-[[2-(2-benzyloxy-4-cyano-phenyl)-4-pyridyl]methyl]pyrrolidine-2-carboxamide] | 78
CN(C)c1cc(COc2cccc(CNC(=O)[C@@H]3CCCN3S(=O)(=O)c3cc4cc(F)ccc4o3)c2)ccn1 [Example 17, (2S)-N-[[3-[[2-(dimethylamino)-4-pyridyl]methoxy]phenyl]-methyl]-1-(5-fluorobenzofuran-2-yl)sulfonyl-pyrrolidine-2-carboxamide] | 15
O=C(NCc1ccc(F)c(-c2ccc(C(F)(F)F)cc2)c1)[C@@H]1CCCN1S(=O)(=O)c1cc2ccccc2o1 [Example 307, (2S)-1-(benzofuran-2-ylsulfonyl)-N-[[4-fluoro-3-[4-(trifluoromethyl)phenyl]phenyl]methyl]pyrrolidine-2-carboxamide] | 1.7
C[C@H](NC(=O)[C@@H]1CCCN1S(=O)(=O)c1cc2ccccc2o1)c1cccc(-c2ccc(C(F)(F)F)nc2)c1 [Example 287, (2S)-1-(benzofuran-2-ylsulfonyl)-N-[(1S)-1-[3-[6-(trifluoromethyl)-3-pyridyl]phenyl]ethyl]pyrrolidine-2-carboxamide] | 7.9
CN(C)c1cc(-c2cccc(CNC(=O)[C@@H]3CCCN3S(=O)(=O)c3cc4cc(F)ccc4o3)c2)ccn1 [Example 96, (2S)-N-[[3-[2-(dimethylamino)-4-pyridyl]phenyl]methyl]-1-(5-fluorobenzofuran-2-yl)sulfonyl-pyrrolidine-2-carboxamide] | 250
O=C(NCc1ccnc(-c2cc(F)c(F)cc2O)c1)[C@@H]1CCCN1S(=O)(=O)c1cc2ccccc2o1 [Example 122, (2S)-1-(benzofuran-2-ylsulfonyl)-N-[[2-(4,5-difluoro-2-hydroxy-phenyl)-4-pyridyl]methyl]pyrrolidine-2-carboxamide] | 170
C[C@H](NS(=O)(=O)c1cc2cc(F)ccc2o1)C(=O)NCc1ccnc(-c2ccc(C(F)(F)F)cc2O)c1 [Example 181, (2S)-2-[(5-fluorobenzofuran-2-yl)sulfonylamino]-N-[[2-[2-hydroxy-4-(trifluoromethyl)phenyl]-4-pyridyl]methyl]propanamide] | 21
O=C(NCc1cccc(OCC2CCOCC2)c1)[C@@H]1CCCN1S(=O)(=O)c1cc2cc(F)ccc2o1 [Example 30, (2S)-1-(5-fluorobenzofuran-2-yl)sulfonyl-N-[[3-(tetrahydropyran-4-ylmethoxy)phenyl]-methyl]pyrrolidine-2-carboxamide] | 8.3
O=C(NCc1cccc(OCc2ccc(C(F)(F)F)cc2)c1)[C@@H]1CCN1S(=O)(=O)c1cc2ccccc2o1 [Example 48, (2S)-1-(benzofuran-2-ylsulfonyl)-N-[[3-[[4-(trifluoromethyl)phenyl]methoxy]-phenyl]methyl]azetidine-2-carboxamide] | 6.9
N#Cc1ccc(-c2cncc(CNC(=O)[C@@H]3CCCN3S(=O)(=O)c3cc4cc(F)ccc4o3)c2)cc1 [Example 142, (2S)-N-[[5-(4-cyanophenyl)-3-pyridyl]methyl]-1-(5-fluorobenzofuran-2-yl)sulfonyl-pyrrolidine-2-carboxamide] | 24
O=C(NCc1ccnc(-c2ccc(C(F)(F)F)cc2)c1)[C@@H]1CCCN1S(=O)(=O)c1cc2c(F)cccc2o1 [Example 97, (2S)-1-(4-fluorobenzofuran-2-yl)sulfonyl-N-[[2-[4-(trifluoromethyl)phenyl]-4-pyridyl]methyl]pyrrolidine-2-carboxamide] | 4
O=C(NCc1cc(-c2ccc(C(F)(F)F)cc2O)ccn1)[C@@H]1CCCN1S(=O)(=O)c1cc2cc(F)ccc2o1 [Example 280, (2S)-1-(5-fluorobenzofuran-2-yl)sulfonyl-N-[[4-[2-hydroxy-4-(trifluoromethyl)phenyl]-2-pyridyl]methyl]pyrrolidine-2-carboxamide] | 520
C[C@H](NS(=O)(=O)c1cc2cc(F)ccc2o1)C(=O)NCc1cc(-c2cnc(C(F)(F)F)cn2)ccn1 [Example 243, (2S)-2-[(5-fluorobenzofuran-2-yl)sulfonylamino]-N-[[4-[5-(trifluoromethyl)pyrazin-2-yl]-2-pyridyl]methyl]propanamide] | 55
O=C(NCc1cccc(OCc2cncc(C(F)(F)F)c2)c1)[C@@H]1CCCN1S(=O)(=O)c1cc2ccccc2o1 [Example 9, (2S)-1-(benzofuran-2-ylsulfonyl)-N-[[3-[[5-(trifluoromethyl)-3-pyridyl]methoxy]phenyl]-methyl]pyrrolidine-2-carboxamide] | 7.6
C[C@H](NS(=O)(=O)c1cc2cc(F)ccc2o1)C(=O)NCc1cc(-c2ccc(C(F)(F)F)cn2)cnn1 [Example 251, (2S)-2-[(5-fluorobenzofuran-2-yl)sulfonylamino]-N-[[5-[5-(trifluoromethyl)-2-pyridyl]pyridazin-3-yl]methyl]propanamide] | 330
O=C(NCc1cccc(-c2ccccc2O)n1)[C@@H]1CCCN1S(=O)(=O)c1cc2cc(F)ccc2o1 [Example 143, (2S)-1-(5-fluorobenzofuran-2-yl)sulfonyl-N-[[6-(2-hydroxyphenyl)-2-pyridyl]methyl]pyrrolidine-2-carboxamide] | 260
O=C(NCc1cccc(CNc2ccc(C(F)(F)F)cn2)c1)[C@@H]1CCCN1S(=O)(=O)c1cc2ccccc2o1 [Example 320, (2S)-1-(benzofuran-2-ylsulfonyl)-N-[[3-[[[5-(trifluoromethyl)-2-pyridyl]amino]methyl]phenyl]methyl]pyrrolidine-2-carboxamide] | 920
CN(C)c1cccc(COc2cccc(CNC(=O)[C@@H]3CCCN3S(=O)(=O)c3cc4cc(F)ccc4o3)c2)c1 [Example 12, (2S)-N-[[3-[[3-(dimethylamino)phenyl]methoxy]phenyl]-methyl]-1-(5-fluorobenzofuran-2-yl)sulfonyl-pyrrolidine-2-carboxamide] | 8.1
C[C@H](NS(=O)(=O)c1cc2cc(F)ccc2o1)C(=O)NCc1cc(-c2ccc(C(F)(F)F)nc2)ccn1 [Example 110, (2S)-2-[(5-fluorobenzofuran-2-yl)sulfonylamino]-N-[[4-[6-(trifluoromethyl)-3-pyridyl]-2-pyridyl]methyl]propanamide] | 17
O=C(NCc1ccc(OC(F)(F)F)cc1)[C@@H]1CCCN1S(=O)(=O)c1cc2ccccc2o1 [Example 63, (2S)-1-(benzofuran-2-ylsulfonyl)-N-[[4-(trifluoromethoxy)phenyl]methyl]-pyrrolidine-2-carboxamide] | 60
O=C(NCc1cccc(OCc2ccco2)c1)[C@@H]1CCCN1S(=O)(=O)c1cc2ccccc2o1 [Example 4, (2S)-1-(benzofuran-2-ylsulfonyl)-N-[[3-(2-furylmethoxy)phenyl]methyl]pyrrolidine-2-carboxamide] | 23
